Data as given in ChEMBL document CHEMBL3217483, “Developing novel non-hydroxamate histone deacetylase inhibitors: the chelidamic warhead” (2012).
The source made the active and inactive calls. The rule behind the calls is not given here.

Experiments:
[1] = target: T1, Histone deacetylase (Homo sapiens) (UniProt Q13547+O15379+Q9UBN7+Q92769+Q9UQL6+Q8WUI4+Q9BY41+Q96DB2+P56524+Q9UKV0+Q969S8); experiment: Inhibition of HDAC in human U937 cells assessed as slight increase in histone H3 acetylation at 50 uM after 24 hrs by western blot analysis; type: cell-based; conditions: U-937
[2] = target: T1, Histone deacetylase (Homo sapiens); experiment: Inhibition of HDAC in human U937 cells assessed as slight increase in alpha tubulin acetylation at 50 uM after 24 hrs by western blot analysis; type: cell-based; conditions: U-937
U-937 [3] = experiment: Cell cycle arrest in human U937 cells assessed as block in S phase at 50 uM after 30 hrs by propidium iodide staining based flow cytometry; type: functional
[4] = target: T1, Histone deacetylase (Homo sapiens); experiment: Inhibition of HDAC in human U937 cells assessed as increase in histone H3 acetylation at 50 uM after 24 hrs by western blot analysis; type: cell-based; conditions: U-937
[5] = target: T1, Histone deacetylase (Homo sapiens); experiment: Inhibition of HDAC in human U937 cells assessed as increase in alpha tubulin acetylation at 50 uM after 24 hrs by western blot analysis; type: cell-based; conditions: U-937
U-937 [6] = experiment: Induction of apoptosis in human U937 cells at 50 uM after 30 hrs by caspase 3-7 activation method based FACS analysis; type: functional
U-937 [7] = experiment: Induction of apoptosis in human U937 cells after 30 hrs by caspase 3-7 activation method based FACS analysis; type: functional, cell-based
U-937 [8] = experiment: Induction of granulocytic differentiation in human U937 cells assessed as CD11c positive/propidium iodide negative cells after 30 hrs by FACS analysis; type: functional, cell-based
U-937 [9] = experiment: Induction of granulocytic differentiation in human U937 cells assessed as CD11c positive/propidium iodide negative cells at 50 uM after 30 hrs by FACS analysis; type: functional

Row | SMILES | inhibition [1] | inhibition [2] | inhibition [4] | inhibition [5] | Activity (U-937 [3]) | Activity (U-937 [6]) | Activity (U-937 [7]) | Activity (U-937 [8]) | Activity (U-937 [9])
1 | O=C(O)c1cc(OCCCSc2nc(-c3ccccc3)cc(=O)[nH]2)cc(C(=O)O)n1 | inactive | inactive |  |  | inactive |  |  |  | 
2 | COC(=O)c1cc(OCCCCCOc2ccc(NC(=O)Cc3ccccc3)cc2)cc(C(=O)OC)n1 | inactive | inactive |  |  | Active |  |  |  | 
3 | COC(=O)c1cc(OCCCSc2nc(-c3ccccc3)cc(=O)[nH]2)cc(C(=O)OC)n1 | inactive | inactive |  |  |  |  |  |  | 
4 | COC(=O)c1cc(OCCCCCSc2nc(-c3ccccc3)cc(=O)[nH]2)cc(C(=O)OC)n1 |  |  | Active | Active | <=50% | <=50% | Dose-dependent effect |  | 
5 | COC(=O)c1cc(OCc2ccc(NC(=O)Cc3ccccc3)cc2)cc(C(=O)OC)n1 | inactive | inactive |  |  | Active |  |  |  | 
6 | O=C(O)c1cc(OCCSc2nc(-c3ccccc3)cc(=O)[nH]2)cc(C(=O)O)n1 | inactive | inactive |  |  | inactive |  |  |  | 
7 | COC(=O)c1cc(OCCCOc2ccc(NC(=O)Cc3ccccc3)cc2)cc(C(=O)OC)n1 | inactive | inactive |  |  | Active |  |  |  | 
8 | O=C(O)c1cc(OCCCCCSc2nc(-c3ccccc3)cc(=O)[nH]2)cc(C(=O)O)n1 | inactive | inactive |  |  | inactive |  |  |  | 
9 | COC(=O)c1cc(OCCCCCCOc2ccc(NC(=O)Cc3ccccc3)cc2)cc(C(=O)OC)n1 | inactive | inactive |  |  | Active |  |  |  | 
10 | COC(=O)c1cc(OCCCCOc2ccc(NC(=O)Cc3ccccc3)cc2)cc(C(=O)OC)n1 | inactive | inactive |  |  | Active |  |  |  | 
11 | O=C(O)c1cc(OCCCCSc2nc(-c3ccccc3)cc(=O)[nH]2)cc(C(=O)O)n1 | inactive | inactive |  |  | inactive |  |  |  | 

Now from value to compound, other results behind:

Row | inhibition [1] | inhibition [2] | inhibition [4] | inhibition [5] | SMILES | Activity (U-937 [3]) | Activity (U-937 [6]) | Activity (U-937 [7]) | Activity (U-937 [8]) | Activity (U-937 [9])
12 | inactive | inactive |  |  | COC(=O)c1cc(OCCCCC(=O)Nc2ccccc2)cc(C(=O)OC)n1 | Active |  |  |  | 
13 | inactive | inactive |  |  | COC(=O)c1cc(OCCCCCCCOc2ccc(NC(=O)Cc3ccccc3)cc2)cc(C(=O)OC)n1 | Active |  |  |  | 
14 |  |  | Active | Active | COC(=O)c1cc(OCCSc2nc(-c3ccccc3)cc(=O)[nH]2)cc(C(=O)OC)n1 | <=50% | <=50% | Dose-dependent effect |  | 
15 | inactive | inactive |  |  | COC(=O)c1cc(OCCOc2ccc(NC(=O)Cc3ccccc3)cc2)cc(C(=O)OC)n1 | Active |  |  |  | 
16 | inactive | inactive |  |  | COC(=O)c1cc(Oc2ccc(NC(=O)Cc3ccccc3)cc2)cc(C(=O)OC)n1 | Active |  |  | Dose-dependent effect | <=40%
17 |  |  | Active | Active | COC(=O)c1cc(OCCCCSc2nc(-c3ccccc3)cc(=O)[nH]2)cc(C(=O)OC)n1 | <=50% | <=50% | Dose-dependent effect |  | 
18 | inactive | inactive |  |  | COC(=O)c1cc(OCCCCCCCCOc2ccc(NC(=O)Cc3ccccc3)cc2)cc(C(=O)OC)n1 | Active |  |  |  | 
